Laboratory results taken from patent publication US20090269795A1, “Mutant alpha4betadelta GABAA receptor and methods of treating anxiety or irritability” (priority 2007, published 2009).

Columns and labels:
[1] = tested on: CA1 hippocampal pyramidal cells; experiment: Tonic GABAergic current, perforated-patch voltage-clamp, hippocampal slice; assay type: cell-based, mouse
Description: Tonic current was recorded as the difference current produced by the selective GABAA receptor antagonist gabazine (120 μM) before and after 30 nM THP^4,29, while gramicidin perforated-patch recordings^33 were accomplished using 140 mM KCl plus 25 μg ml^−1 gramicidin in the pipet solution, recorded when the access resistance dropped to <60 MΩ after tight seal formation. Estimates of the direction of Cl^− current were obtained by recording using tight-seal cell-attached techniques^31 (>1 GΩ seal) in current clamp mode. A downward deflection signified outward (i.e., hyperpolarizing) Cl^− current.
One complication of whole-cell patch clamp recording is that normal ionic gradients are disrupted. Therefore, in order to verify that THP reduced tonic GABAergic currents in intact cells under conditions of unperturbed internal Cl^−, we directly recorded pharmacologically isolated tonic GABAergic current from the soma using perforated-patch voltage-clamp techniques in the hippocampal slice.

[2] = tested on: α4β2δ GABAA receptors with α4 mutations R351Q, K352Q, K316Q, R317Q and K318Q; experiment: Patch clamp of GABA-gated current at mutated receptors in HEK-293 cells; assay type: cell-based, mouse α4; details: 30 nM THP
Description: (§1) Whole cell patch clamp recording—GABA-gated currents were recorded at room temperature (20-22° C.) at a holding potential of −50 mV^14. The pipet solution contained (in mM): N-methyl-D-glucamine chloride 120, Cs4BAPTA 5 (Calbiochem), Mg-ATP 5, and an ATP regeneration system (20 mM Tris phosphocreatine and creatine kinase). Internal [Cl^−] or the holding potential were varied, using gluconate as the anion, to alter the direction of Cl^− flow, corrected for the junction potential. In some cases, current-voltage curves were constructed using the peak current response to agonist or agonist+THP across a range of holding potentials (−60 to +60) applied as 10 mV steps, or as a voltage ramp. […] Traces are presented as the average of 3 traces after subtraction of the leak current. […] This rapid application technique yields currents with a rapid rise phase. THP was also bath applied 30 s prior to tests of steroid effects. Currents were recorded using an Axopatch 1D amplifier (Axon Instruments) filtered at 2 kHz (four-pole Bessel filter) and detected at 10 kHz (pClamp 5.1). Analysis of peak current was accomplished with pClamp 9.2 and Origin software (Microcal).
(§2) Mutagenesis: Site-directed mutations were made using the Quik-Change Mutagenesis Kit I or II (Stratagene Inc., La Jolla, Calif.). Numbering of mutated residues was based on the distance from arginine 99^19. Successful mutations were verified with double-stranded sequencing of end-products (Genewiz Inc., North Brunswick, N.J.).
(§3) Recombinant receptors: Human embryonic kidney (HEK)-293 cells were transfected with α4 β2δ or other indicated subunit combinations (see Supplementary Methods) and co-transfected with enhanced green fluorescent protein for visualization. GABA-gated currents were recorded at room temperature (20-22° C.) at a holding potential of −50 mV^17 using a pipet solution containing 120 mM: N-methyl-D-glucamine chloride. Internal [Cl^−] or the holding potential were varied to alter the direction of Cl^− flow. […] Currents were recorded using an Axopatch 1D amplifier (Axon Instruments) filtered at 2 kHz (four-pole Bessel filter), detected at 10 kHz and analyzed with pClamp 9.2. Desensitization rate was determined using non-linear curve-fitting routines (Origin, Microcal; see next section).

[3] = target: T1, α4(R353C)β2δ GABAA receptors (UniProt P63138+Q9D6F4, R389C); experiment: as above; assay type: cell-based, mouse α4; details: 30 nM THP
T1 construct: expressed in transfected cells; host or cells: HEK-293
Description: as §1, §2, §3

[4] = target: T2, α4[R353Q]β2δ GABAA receptors (UniProt P63138+Q9D6F4, R389Q); experiment: as above; assay type: cell-based, mouse α4; details: 30 nM THP
T2 construct: expressed in transfected cells; host or cells: HEK-293
Description: as §1, §2, §3

[5] = target: T3, α4(R353K)β2δ GABAA receptors (UniProt P63138+Q9D6F4, R389K); experiment: as above; assay type: cell-based, mouse α4; details: 30 nM THP
T3 construct: expressed in transfected cells; host or cells: HEK-293
Description: as §1, §2, §3

[6] = tested on: α4 and δ GABAA receptor subunits; experiment: Western blot of hippocampal α4 and δ subunit expression; assay type: in vivo, mouse; details: replacement THP 10 mg kg−1 day−1 for 3 days
Text: Animal subjects. Prepubertal and pubertal female C57BL6 mice (3½-6 weeks old, +/+ and δ^−/−1) were housed in a reverse light:dark cycle (12:12). Both sets of mice were originally supplied by G. Homanics (Univ. of Pittsburgh), and were bred on site, with +/+ mice supplemented from Jackson Laboratories (Bar Harbor, Me.). Initially, age-matched+/+littermates of the δ^−/−were used as controls, but because they were indistinguishable from C57BL6, data from both groups were pooled. Genotyping of the tails verified that mice were homozygous δ^−/−. […] The onset of puberty was determined by vaginal opening, and pubertal mice tested on the day of first metestrus, identified by vaginal morphology and verification of first estrus the previous day. […] Individual stages of puberty were not distinguished, and pre-pubertal mice were used before any visible signs of pubertal development, assessed by development of the peri-vaginal area. […]
Western blot: Procedures were performed on hippocampal membranes at protein concentrations in the linear range (5-10 μg), as we have described^7. Following preparation of crude hippocampal membranes, individual protein concentrations were assessed using the Bradford assay. […] (The δ antibody was a generous gift from W. Sieghart.) Optical densities were quantified with One-Dscan software from a scanned image. […]

Structure (SMILES): CC(=O)[C@H]1CC[C@H]2[C@@H]3CC[C@H]4C[C@H](O)CC[C@]4(C)[C@H]3CC[C@]12C [THP, 3α-OH-5α[β]-pregnan-20-one]
- depression of outward GABAergic current ([1]; 30 nM THP, pubertal, 1 μM TTX, 1 μM GABA): 40±8%
- effect on post-synaptic GABAergic tonic current ([1]; before puberty): had no effect
- effect on reversal potential ([1]; pubertal): did not alter the reversal potential
- effect on GABA-gated conductance (gabazine-sensitive slope) ([1]; pubertal, 10 mV steps −60 to −40 mV): decreased the GABA-gated conductance
- effect of mutation on THP inhibition of outward current [2]: had no effect
- steroid-induced reduction in outward current at mutant receptor [3]: prevented the steroid-induced reduction in outward current
- effect on inward current [4]: increased inward current
- steroid-induced reduction in outward current at mutant receptor ([4]; R353Q): prevented the steroid-induced reduction in outward current
- THP inhibition of outward current at mutant receptor [5]: did not prevent THP inhibition of outward current
- effect on increased expression of α4 and δ subunits at onset of puberty [6]: prevented
